In article PMC5076529, “Binding Sites for Acylated Trehalose Analogs of Glycolipid Ligands on an Extended Carbohydrate Recognition Domain of the Macrophage Receptor Mincle” (The Journal of Biological Chemistry, 2016):

Experiments:
[1] = target: T1, mincle extended CRD (bovine) (Bos taurus, UniProt E1BHM0, I174T); test: X-ray crystallography, […] Å; settings: pH 5.6 reservoir; primary sugar-binding site, conserved Ca2+; second substituent not visible
T1 construct: gene CLEC4E; extended CRD from Glu-64 to C terminus with one extra N-terminal Ala, includes disulfide 4; E. coli BL21(DE3) inclusion bodies, renatured, trehalose-Sepharose
T1 sequence (E1BHM0 64-211 I174T): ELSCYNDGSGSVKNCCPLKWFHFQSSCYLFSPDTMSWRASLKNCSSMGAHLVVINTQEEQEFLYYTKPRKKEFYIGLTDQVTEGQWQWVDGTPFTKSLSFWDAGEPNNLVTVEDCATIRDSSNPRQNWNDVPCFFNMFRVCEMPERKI

[2] = target: T2, mincle minimal CRD (bovine) (Bos taurus, UniProt E1BHM0, I174T); test: competition with […]-mannose-BSA on immobilized CRD; format: binding
T2 construct: gene CLEC4E; minimal C-type carbohydrate recognition domain, N-terminally truncated, lacks disulfide 4; E. coli, renatured from inclusion bodies
T2 sequence (E1BHM0 79-211 I174T): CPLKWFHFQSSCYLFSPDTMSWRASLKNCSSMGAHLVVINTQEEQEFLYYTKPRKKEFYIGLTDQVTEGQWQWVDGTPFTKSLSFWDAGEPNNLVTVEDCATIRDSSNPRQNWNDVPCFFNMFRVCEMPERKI

[3] = target: T1, mincle extended CRD (bovine); test: X-ray crystallography, […] Å; settings: pH 5.5 reservoir; primary sugar-binding site, conserved Ca2+
[4] = target: T2, mincle minimal CRD (bovine); test: X-ray crystallography, […] Å; settings: pH 5.6; primary sugar-binding site, conserved Ca2+; acyl chain only partly visible

Row | Ki [2] [µM] | SMILES | other results
1 | 3.1 ± 0.5 | CCCCCCCCCCCC(=O)OC[C@H]1O[C@H](O[C@H]2O[C@H](CO)[C@@H](O)[C@H](O)[C@H]2O)[C@H](O)[C@@H](O)[C@@H]1O [Monododecanoate] | –
2 | 137 ± 18 | CCCCCCC(=O)OC[C@H]1O[C@H](O[C@H]2O[C@H](CO)[C@@H](O)[C@H](O)[C@H]2O)[C@H](O)[C@@H](O)[C@@H]1O [Monoheptanoate] | –
3 | 5.1 ± 0.6 | CCCCCCCCCC(=O)OC[C@H]1O[C@H](O[C@H]2O[C@H](CO)[C@@H](O)[C@H](O)[C@H]2O)[C@H](O)[C@@H](O)[C@@H]1O [Monodecanoate] | –

Continued, compound first:

Row | SMILES | Ki [2] [µM] | other results
4 | COc1cccc(C(=O)OC[C@H]2O[C@H](O[C@H]3O[C@H](COC(=O)c4cccc(OC)c4OC)[C@@H](O)[C@H](O)[C@H]3O)[C@H](O)[C@@H](O)[C@@H]2O)c1OC [brartemicin analog] | – | X-ray crystallography, 1.80 Å [1]: The structure of mincle bound to a synthetic analog of brartemicin was also examined
5 | CCCCCC(=O)OC[C@H]1O[C@H](O[C@H]2O[C@H](COC(=O)CCCCC)[C@@H](O)[C@H](O)[C@H]2O)[C@H](O)[C@@H](O)[C@@H]1O [Dihexanoate] | 8.2 ± 0.3 | –
6 | CCCCC(=O)OC[C@H]1O[C@H](O[C@H]2O[C@H](COC(=O)CCCC)[C@@H](O)[C@H](O)[C@H]2O)[C@H](O)[C@@H](O)[C@@H]1O [Divalerate] | 59 ± 2 | –
7 | Cc1cc(O)cc(O)c1C(=O)OC[C@H]1O[C@H](O[C@H]2O[C@H](COC(=O)c3c(C)cc(O)cc3O)[C@@H](O)[C@H](O)[C@H]2O)[C@H](O)[C@@H](O)[C@@H]1O [brartemicin] | – | X-ray crystallography, 2.20 Å [3]: structures of the extended CRD bound to either natural brartemicin or a synthetic analog
8 | CCCC(=O)OC[C@H]1O[C@H](O[C@H]2O[C@H](CO)[C@@H](O)[C@H](O)[C@H]2O)[C@H](O)[C@@H](O)[C@@H]1O [trehalose monobutyrate] | – | X-ray crystallography, 2.10 Å [4]: Co-crystals of trehalose monobutyrate and the CRD of mincle were examined
9 | CC(C)C(=O)OC[C@H]1O[C@H](O[C@H]2O[C@H](COC(=O)C(C)C)[C@@H](O)[C@H](O)[C@H]2O)[C@H](O)[C@@H](O)[C@@H]1O [Diisobutyrate] | 370 ± 40 | –
